From ChEMBL document CHEMBL1201862, “PubChem BioAssay data set” (2004)
The source made the active and inactive calls.

What was measured:
SN12K1 = test: cells; assay type: functional; settings: Homo sapiens
P388/ADR = test: cells; assay type: functional; settings: Mus musculus
P388 = test: cells; assay type: functional; settings: Mus musculus
[1] = biological target: Voltage-dependent T-type calcium channel subunit alpha-1H (Homo sapiens, UniProt O95180); assay type: functional;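 also: channel activity triggered by adding a high calcium stimulation buffer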
[2] = loss of viability in HepG2 cells – cell-based, CellTiter-Glo, cherry-picked, cytotoxicity control for Shn3 inhibitor project, dose response (AID 624134); assay type: functional
[3] = non-specific 3'UTR reporter inhibition in Clone20-Shn3RL – cell-based, Renilla luciferase, cherry-picked, counter-screen for Shn3 inhibitor project, dose response (AID 624133); assay type: functional
[4] = reduction of Shn3 3'UTR-driven luciferase in osteoblasts – cell-based, Clone20 osteoblasts, firefly luciferase, cherry-picked, dose response (AID 624132); assay type: functional;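 also: firefly luciferase luminescence from reporter carrying the Shn3 3'UTR in osteoblasts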
[5] = viability of uninfected HEp-2 cells – cell-based, HTS, cytotoxicity control for RSV inhibitor project, dose response (AID 2410); assay type: functional; settings: human respiratory syncytial virus
[6] = biological target: T1, High affinity choline transporter 1 (Homo sapiens, UniProt Q9GZV3); test: human choline transporter blockers, potency – cell-based, 5-point CRC, membrane potential dye, dose response (AID 504840); assay type: functional
T1 sequence (Q9GZV3 whole entry): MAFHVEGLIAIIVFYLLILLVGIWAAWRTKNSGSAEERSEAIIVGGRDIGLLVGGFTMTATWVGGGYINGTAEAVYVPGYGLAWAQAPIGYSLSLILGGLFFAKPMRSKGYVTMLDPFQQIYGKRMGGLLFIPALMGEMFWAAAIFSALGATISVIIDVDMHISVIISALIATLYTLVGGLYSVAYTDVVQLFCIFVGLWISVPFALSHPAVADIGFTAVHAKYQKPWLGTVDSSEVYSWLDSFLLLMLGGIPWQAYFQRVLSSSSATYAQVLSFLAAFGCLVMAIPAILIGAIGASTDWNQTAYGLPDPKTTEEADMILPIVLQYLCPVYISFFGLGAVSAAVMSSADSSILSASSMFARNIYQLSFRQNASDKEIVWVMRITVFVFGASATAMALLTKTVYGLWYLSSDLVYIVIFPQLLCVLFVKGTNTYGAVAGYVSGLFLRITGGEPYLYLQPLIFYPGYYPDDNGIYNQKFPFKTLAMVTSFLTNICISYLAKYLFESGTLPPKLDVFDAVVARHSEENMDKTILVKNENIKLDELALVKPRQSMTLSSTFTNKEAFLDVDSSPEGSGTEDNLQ

[7] = luciferase reporter signal suppression in cells – H4 neuroglioma cells, luminescence, dose response (AID 1990); assay type: functional, cell-based
[8] = biological target: T2, Heat shock factor protein 1 (Mus musculus, UniProt P38532); test: enhancement of HSF1-driven luciferase signal – cell-based, NIH3T3, luminescence, dose retest, confirmation (AID 435004); assay type: functional;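 also: stress induced by proteasome inhibitor MG132 added 30 min after compound; luciferase reporter driven by HSF1 response element in NIH3T3 cells; actives raise luminescence as potentiators of the MG132 stress response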
T2 sequence (P38532 whole entry): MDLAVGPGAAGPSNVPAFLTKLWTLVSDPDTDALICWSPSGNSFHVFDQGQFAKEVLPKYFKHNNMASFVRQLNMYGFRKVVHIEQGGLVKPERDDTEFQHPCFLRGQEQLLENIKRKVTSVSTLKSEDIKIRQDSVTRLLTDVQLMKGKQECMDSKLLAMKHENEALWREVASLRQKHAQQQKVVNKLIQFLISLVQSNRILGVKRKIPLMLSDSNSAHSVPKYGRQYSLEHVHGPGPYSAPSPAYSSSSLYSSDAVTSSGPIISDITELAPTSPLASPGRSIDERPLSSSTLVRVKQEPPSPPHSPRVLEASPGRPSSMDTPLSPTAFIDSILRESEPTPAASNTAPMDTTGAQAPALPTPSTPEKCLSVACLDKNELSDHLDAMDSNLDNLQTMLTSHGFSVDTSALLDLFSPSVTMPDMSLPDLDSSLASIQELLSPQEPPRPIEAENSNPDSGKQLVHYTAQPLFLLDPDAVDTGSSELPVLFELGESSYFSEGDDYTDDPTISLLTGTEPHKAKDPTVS

[9] = Luminescence Cell-Based Dose Response HTS to Identify Inhibitors of 5'UTR Stem-Loop Driven Prion Protein mRNA Translation in H4 Neuroglioblastoma Cells. [Related pubchem assays: 1827 (Project Summary), 1813 (Primary HTS)]; assay type: functional
[10] = alpha-synuclein stem-loop luciferase translation blockers – H4 neuroglioma cells, luminescence, confirmation (AID 1988); assay type: functional, cell-based
[11] = biological target: T3, Polyadenylate-binding protein 1 (Homo sapiens, UniProt P11940); test: MLLE binding blockers, Cy5 peptide tracer – biochemical, fluorescence polarization, Cy5-PAM2 peptide, secondary, miRNA deadenylation inhibitor project, dose response (AID 602260); assay type: functional; settings: read-out: IC50_Mean
[12] = biological target: T3, Polyadenylate-binding protein 1; test: MLLE domain peptide-binding blockers, IC50 – biochemical, fluorescence polarization, FITC-PAM2 peptide, dose response (AID 602259); assay type: functional; settings: read-out: IC50_Mean
[13] = biological target: T4, Corticotropin-releasing factor receptor 2/Corticotropin-releasing factor-binding protein (Homo sapiens, UniProt P24387+Q13324); test: Dose Response confirmation of uHTS hits for small molecule antagonists of the CRF-binding protein and CRF-R2 receptor complex.; assay type: functional; settings: read-out: IC50_Mean
T4 sequence (Q13324 whole entry): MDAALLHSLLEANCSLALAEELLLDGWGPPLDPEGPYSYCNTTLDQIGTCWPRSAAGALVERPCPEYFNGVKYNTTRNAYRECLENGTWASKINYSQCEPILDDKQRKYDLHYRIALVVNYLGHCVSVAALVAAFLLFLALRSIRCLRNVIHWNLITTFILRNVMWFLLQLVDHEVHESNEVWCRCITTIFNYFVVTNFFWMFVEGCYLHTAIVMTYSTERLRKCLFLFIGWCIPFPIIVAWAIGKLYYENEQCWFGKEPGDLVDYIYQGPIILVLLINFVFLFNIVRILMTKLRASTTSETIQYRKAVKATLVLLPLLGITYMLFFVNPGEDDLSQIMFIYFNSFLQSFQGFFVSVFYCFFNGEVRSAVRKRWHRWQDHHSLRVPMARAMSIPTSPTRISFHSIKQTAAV
T4 sequence (P24387 whole entry): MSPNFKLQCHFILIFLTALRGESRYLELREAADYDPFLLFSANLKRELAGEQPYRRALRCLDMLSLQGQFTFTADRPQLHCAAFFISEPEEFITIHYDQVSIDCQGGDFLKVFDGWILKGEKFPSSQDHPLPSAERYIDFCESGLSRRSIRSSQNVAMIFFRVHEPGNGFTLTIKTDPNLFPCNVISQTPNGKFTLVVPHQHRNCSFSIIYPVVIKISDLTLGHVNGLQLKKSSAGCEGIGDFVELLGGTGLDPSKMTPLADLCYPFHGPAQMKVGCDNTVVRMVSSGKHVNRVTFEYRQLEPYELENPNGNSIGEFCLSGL

[14] = biological target: T4, Corticotropin-releasing factor receptor 2/Corticotropin-releasing factor-binding protein; test: activators of CRF receptor 2 with binding protein – uHTS hits, confirmation (AID 602473); assay type: functional; settings: read-out: EC50_Mean
[15] = biological target: T5, Ubiquitin-conjugating enzyme E2 N (Homo sapiens, UniProt P61088); assay type: functional;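 also: Dose-response confirmation in a TR-FRET assay detecting UBC13-driven polyubiquitin chain formation, inhibition measured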
T5 sequence (P61088 whole entry): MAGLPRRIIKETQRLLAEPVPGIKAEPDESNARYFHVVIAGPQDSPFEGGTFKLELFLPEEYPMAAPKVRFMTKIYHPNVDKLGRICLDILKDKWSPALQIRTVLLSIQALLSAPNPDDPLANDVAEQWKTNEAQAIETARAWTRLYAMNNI

T3 sequence (P11940 whole entry, the tested form may be a part): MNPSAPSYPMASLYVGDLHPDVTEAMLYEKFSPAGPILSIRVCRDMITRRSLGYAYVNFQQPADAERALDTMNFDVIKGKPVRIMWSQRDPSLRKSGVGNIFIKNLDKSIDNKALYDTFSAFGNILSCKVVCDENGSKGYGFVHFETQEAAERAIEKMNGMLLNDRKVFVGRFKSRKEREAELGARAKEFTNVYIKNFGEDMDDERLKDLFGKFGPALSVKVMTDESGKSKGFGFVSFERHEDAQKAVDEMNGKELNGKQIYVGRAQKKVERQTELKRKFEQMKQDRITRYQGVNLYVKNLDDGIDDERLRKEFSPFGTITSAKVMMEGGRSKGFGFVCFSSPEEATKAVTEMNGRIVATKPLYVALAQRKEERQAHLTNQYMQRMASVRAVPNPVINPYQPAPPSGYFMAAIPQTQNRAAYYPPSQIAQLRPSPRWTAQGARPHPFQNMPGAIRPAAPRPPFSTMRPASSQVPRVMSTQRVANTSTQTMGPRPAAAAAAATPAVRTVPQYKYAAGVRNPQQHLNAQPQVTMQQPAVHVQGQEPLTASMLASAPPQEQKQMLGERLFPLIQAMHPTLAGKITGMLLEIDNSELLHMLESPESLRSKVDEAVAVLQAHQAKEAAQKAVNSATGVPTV
Sequence of Voltage-dependent T-type calcium channel subunit alpha-1H (O95180 whole entry): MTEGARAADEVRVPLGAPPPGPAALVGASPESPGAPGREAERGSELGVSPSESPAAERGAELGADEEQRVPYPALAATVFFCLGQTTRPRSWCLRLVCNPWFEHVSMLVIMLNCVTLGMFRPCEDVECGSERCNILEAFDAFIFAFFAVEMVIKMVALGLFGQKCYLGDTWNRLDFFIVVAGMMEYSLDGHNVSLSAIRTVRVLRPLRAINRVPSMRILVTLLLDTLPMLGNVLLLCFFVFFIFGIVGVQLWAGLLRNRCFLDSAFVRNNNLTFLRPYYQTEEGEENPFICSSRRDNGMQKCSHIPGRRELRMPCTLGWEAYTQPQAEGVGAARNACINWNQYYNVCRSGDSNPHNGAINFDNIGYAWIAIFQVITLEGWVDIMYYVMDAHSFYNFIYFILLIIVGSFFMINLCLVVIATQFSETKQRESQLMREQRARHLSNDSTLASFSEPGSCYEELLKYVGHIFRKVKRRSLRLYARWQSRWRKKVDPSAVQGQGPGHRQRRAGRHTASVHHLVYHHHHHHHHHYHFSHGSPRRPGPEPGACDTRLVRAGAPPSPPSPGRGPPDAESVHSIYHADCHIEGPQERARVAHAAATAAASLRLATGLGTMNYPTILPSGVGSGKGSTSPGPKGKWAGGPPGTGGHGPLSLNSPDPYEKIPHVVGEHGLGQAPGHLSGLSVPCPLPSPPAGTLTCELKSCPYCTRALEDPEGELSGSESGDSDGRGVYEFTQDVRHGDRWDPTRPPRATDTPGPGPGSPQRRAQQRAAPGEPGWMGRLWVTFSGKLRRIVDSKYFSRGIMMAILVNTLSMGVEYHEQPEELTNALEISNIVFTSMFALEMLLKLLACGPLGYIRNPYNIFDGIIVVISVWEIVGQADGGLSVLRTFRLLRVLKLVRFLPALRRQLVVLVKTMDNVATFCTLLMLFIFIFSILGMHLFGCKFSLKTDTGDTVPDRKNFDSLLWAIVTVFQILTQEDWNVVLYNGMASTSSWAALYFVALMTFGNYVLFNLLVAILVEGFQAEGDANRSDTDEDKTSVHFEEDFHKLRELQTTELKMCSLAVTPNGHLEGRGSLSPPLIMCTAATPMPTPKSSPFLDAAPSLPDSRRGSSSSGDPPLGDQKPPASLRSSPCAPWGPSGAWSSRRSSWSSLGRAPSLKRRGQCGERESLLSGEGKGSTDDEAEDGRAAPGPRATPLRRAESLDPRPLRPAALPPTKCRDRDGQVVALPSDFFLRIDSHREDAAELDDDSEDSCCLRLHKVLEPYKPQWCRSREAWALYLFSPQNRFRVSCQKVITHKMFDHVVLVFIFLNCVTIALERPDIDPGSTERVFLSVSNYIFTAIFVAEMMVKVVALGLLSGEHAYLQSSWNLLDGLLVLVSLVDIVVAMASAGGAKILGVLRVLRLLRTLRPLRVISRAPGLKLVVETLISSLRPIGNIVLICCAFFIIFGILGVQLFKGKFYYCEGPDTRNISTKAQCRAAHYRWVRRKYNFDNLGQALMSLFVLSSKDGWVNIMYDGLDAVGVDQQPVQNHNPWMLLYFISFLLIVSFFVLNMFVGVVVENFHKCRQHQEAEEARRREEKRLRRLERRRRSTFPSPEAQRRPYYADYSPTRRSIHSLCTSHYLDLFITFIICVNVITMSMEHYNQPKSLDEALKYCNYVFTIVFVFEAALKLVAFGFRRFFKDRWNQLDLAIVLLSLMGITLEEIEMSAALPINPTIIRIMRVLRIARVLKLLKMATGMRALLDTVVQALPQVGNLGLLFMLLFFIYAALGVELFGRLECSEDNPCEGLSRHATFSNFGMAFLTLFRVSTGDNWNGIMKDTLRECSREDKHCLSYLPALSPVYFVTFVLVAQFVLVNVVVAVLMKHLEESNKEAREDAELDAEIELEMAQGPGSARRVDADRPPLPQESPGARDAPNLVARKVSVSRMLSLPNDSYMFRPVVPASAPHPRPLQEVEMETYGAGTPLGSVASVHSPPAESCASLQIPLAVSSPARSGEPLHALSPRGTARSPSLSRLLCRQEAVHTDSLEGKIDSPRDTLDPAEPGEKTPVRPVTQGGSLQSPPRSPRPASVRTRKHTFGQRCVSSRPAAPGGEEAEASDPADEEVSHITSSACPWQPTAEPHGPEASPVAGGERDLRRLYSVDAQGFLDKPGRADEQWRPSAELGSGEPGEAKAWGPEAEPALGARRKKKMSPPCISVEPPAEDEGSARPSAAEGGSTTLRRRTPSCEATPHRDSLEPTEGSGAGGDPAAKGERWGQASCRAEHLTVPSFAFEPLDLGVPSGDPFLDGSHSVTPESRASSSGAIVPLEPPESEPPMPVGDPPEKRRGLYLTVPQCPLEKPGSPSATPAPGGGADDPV

CC(C)[C@](O)(C(=O)OCC1=CCN2CC[C@@H](O)[C@@H]12)[C@H](C)O
GI50 (SN12K1): > 375 µM (inactive) | GI50 (P388/ADR): > 375 µM (inactive) | GI50 (P388): > 375 µM (inactive)

O=C1NC(=O)C2C3C=CC(C12)C1C2C(=O)NC(=O)C2C31 (stereo not given)
GI50 (SN12K1): 85.3 µM (inactive) | GI50 (P388/ADR): 122 µM (inactive) | GI50 (P388): 21 µM (inactive)

O=C1CC(c2nc3ccccc3[nH]2)CN1c1cccc(C(F)(F)F)c1 (stereo not given)
EC50 [1]: 8.89 µM (active)

C=C1CC2(OC1=O)c1ccccc1CCc1ccccc12
AC50 [2]: 11.4 µM (active) | AC50 [3]: 5.67 µM (active) | AC50 [4]: 1.28 µM (active)

Cc1ccc(-c2nnn(CC(=O)N(c3ccccc3F)C(C(=O)NCC3CCCO3)c3c[nH]c4ccccc34)n2)cc1 (stereo not given)
EC50 [1]: 4 µM (active)

NS(=O)(=O)c1ccc(CCNCc2cc(Br)ccc2OCc2ccccc2)cc1
AC50 [2]: 53.7 µM (active) | AC50 [3]: 5.96 µM (active) | AC50 [4]: 2.92 µM (active)

COc1ccc(OCC(O)CNCCOc2ccccc2OC)c(C(C)(C)C)c1 (stereo not given)
AC50 [2]: 30.7 µM (active) | CC50 [5]: 14.7 µM (active) | AC50 [3]: 19.6 µM (active) | AC50 [4]: 11.6 µM (active)

c1ccc2c3c(ccc2c1)-c1[nH]ncc1CCO3
GI50 (SN12K1): 22.4 µM (inactive) | GI50 (P388/ADR): 26.9 µM (inactive) | GI50 (P388): 26.1 µM (inactive)

Cc1ccc(C)c(NC(=O)C2C(c3ccccc3)C2(Cl)Cl)c1 (stereo not given)
EC50 [1]: 0.968 µM (active)

C=C1C(C)C2C(Cc3ccccc3)NC(=O)C23C(OC(C)=O)C=CC(C)(O)C(=O)C(C)C/C=C/C3C1O (stereo not given)
GI50 (SN12K1): 0.0619 µM (active) | GI50 (P388/ADR): 14.4 µM (inactive) | GI50 (P388): 0.454 µM (active)

Cc1ccc(NC(=O)CSc2nccn2Cc2ccccc2)cc1C
EC50 [1]: 2.74 µM (active)

CCc1nn2c(NCCOC)cc(C)nc2c1-c1ccc(F)cc1
IC50 [6]: 14.5 µM (active)

O=C(CSc1nnc(-c2ccncc2)n1Cc1ccco1)c1ccc(Cl)cc1
IC50 [6]: 1.91 µM (active)

CC(C)CC(/C(O)=C(\C#N)c1nc2ccccc2[nH]1)N1C(=O)c2ccccc2C1=O (stereo not given)
EC50 [7]: > 120 µM (not active) | EC50 [8]: > 260 µM (inactive) | CC50 [5]: 21 µM (active) | EC50 [9]: > 120 µM (not active) | EC50 [10]: 12.3 µM (active) | EC50 [1]: 14.8 µM (active)

O=C(Cc1c[nH]c2ccccc12)OCCOC(=O)Cc1c[nH]c2ccccc12
EC50 [1]: 4.77 µM (active)

Cc1cccc(C)c1NC(=S)Nc1ccc(F)cc1
IC50 [11]: > 66 µM (inactive) | IC50 [12]: > 66 µM (inactive) | IC50 [13]: > 47.1 µM (inactive) | EC50 [14]: > 53 µM (inactive)

CN(C)C1(C/N=C/c2cc(Cl)cc([N+](=O)[O-])c2O)CCCCC1
IC50 [6]: 14.5 µM (active)

COC(=O)c1ccc2c(=O)sc(N3CCC(C(N)=O)CC3)nc2c1
IC50 [11]: > 66 µM (inactive) | IC50 [12]: 52.6 µM (inactive)

O=C1C(Br)=CC2([N+](=O)[O-])CCNC3=C(C4=NCCc5c[nH]c(c54)C3=O)C2=C1Br (stereo not given)
GI50 (SN12K1): 3.3 µM (inactive) | GI50 (P388/ADR): 0.579 µM (active) | GI50 (P388): 0.317 µM (active)

O=C1N=C2SCCN2/C1=C\c1ccccc1Cl
IC50 [11]: > 66 µM (inactive) | IC50 [12]: > 66 µM (inactive)

COc1ccc(Cc2nn(C3OC(COC(C)=O)C(OC(C)=O)C(OC(C)=O)C3OC(C)=O)c(=S)n(-c3ccc(OC)cc3)c2=O)cc1 (stereo not given)
GI50 (SN12K1): > 100 µM (inactive) | GI50 (P388/ADR): > 100 µM (inactive) | GI50 (P388): > 100 µM (inactive)

COC(=O)c1cccc(N[C@@H]2c3cc4c(cc3C(c3cc(OC)c(O)c(OC)c3)[C@H]3C(=O)OCC32)OCO4)c1 (stereo not given in full)
GI50 (SN12K1): 0.23 µM (active) | GI50 (P388/ADR): 0.271 µM (active) | GI50 (P388): 0.0103 µM (active)

COc1cccc(-c2csc(N3CCN(C(=O)NC45CC6CC(CC(C6)C4)C5)CC3)n2)c1
EC50 [1]: 5.32 µM (active)

COC(=O)c1ccccc1NC(=O)c1cccc(NC(=O)c2ccc(Br)o2)c1C
EC50 [1]: 5.7 µM (active)

Cc1nc2ccccc2c(=O)n1Nc1ccc(C(=O)O)cc1
GI50 (SN12K1): > 100 µM (inactive) | GI50 (P388/ADR): > 100 µM (inactive) | GI50 (P388): > 100 µM (inactive)

Cc1ccccc1-n1c(C)cc(/C=N/NC(=O)c2ccc(CN3CCOCC3)cc2)c1C
IC50 [6]: 7.94 µM (active)

CC1CCN(C(=S)c2ccc([N+](=O)[O-])cc2)CC1
IC50 [11]: > 66 µM (inactive) | IC50 [12]: > 66 µM (inactive)

CCCNS(=O)(=O)c1cccc(C(=O)NC2CCCc3ccccc32)c1 (stereo not given)
IC50 [6]: 13.5 µM (active) | IC50 [13]: > 47.1 µM (inactive) | EC50 [14]: > 53 µM (inactive)

CCc1ccc(N(C(=O)c2snc(C(N)=O)c2N)C(C(=O)NCC2CCCO2)c2ccco2)cc1 (stereo not given)
IC50 [15]: > 20 µM (inactive)

Cc1c2cnccc2c(C)c2c1c1ccccc1n2CC1CO1 (stereo not given)
GI50 (SN12K1): 0.719 µM (active) | GI50 (P388/ADR): 0.065 µM (active) | GI50 (P388): 0.0291 µM (active)

CCOC(=O)NC1=C(N2CC2)C(=O)C(NC(=O)OCC)=C(N2CC2)C1=O [DIAZIQUONE]
GI50 (SN12K1): 2.94 µM (inactive) | GI50 (P388/ADR): 2.72 µM (inactive) | GI50 (P388): 1.77 µM (inactive)

CN(CCOc1ccc(Cl)cc1)C(=O)c1cccc(S(=O)(=O)N2CCN(Cc3ccccc3)CC2)c1
AC50 [2]: > 70 µM (inactive) | AC50 [3]: 3.57 µM (active) | AC50 [4]: 2.29 µM (active)

CN(C(=S)NC(=O)CCCOc1ccc(Cl)cc1Cl)c1ccccc1
EC50 [1]: 4.13 µM (active)
